This passage reports MIC and LD50 results from patent publication US4285940A, “Cephalosporin derivatives, and antibacterial drugs comprising said derivatives” (Eisai Co., Ltd., priority 1979, dated 1981).

Structures are written as SMILES.

In data set [1] the test system is Serratia marcescens ES-75. Kind of data set: MIC by standard agar dilution method of the Japan Society of Chemotherapy. The note with it: ES75, Mueller Hinton agar, 18 hours at 37° C., Examples 1, 2, 4 as sodium salts, Example 5 as free acid. It counts as cell-based. Here is the method: (§1) Minimal inhibitory concentration (MIC) was determined by the standard agar dilution method of the Japan Society of Chemotherapy.
(§2) The compounds described in Examples 1, 2 and 4 were dissolved in sterilized water; the compound described in Example 5 was dissolved in acetone-water (1:1); and the control compound, cephaloglycin, was dissolved in a 3% sodium hydrogen carbonate solution.
(§3) Serial two-fold dilutions were made from the above solutions.
(§4) One-ml aliquots of each dilution were mixed with 9 ml of Mueller Hinton agar in petri-dishes to make agar plates containing the compound at serially diluted concentrations. After agar hardened, plates were put in an incubator at 37° C. for 1.5-2 hours with the lids slightly open to evaporate acetone off the plates.
(§5) Test organisms were grown for 18 hours at 37° C. in Trypticase Soy broth and diluted in saline to approximately 10^6 colony forming units per ml. A loopful of each cell suspension was applied on the agar plate mentioned above and the plates were incubated for 18 hours at 37° C. before MIC was determined.
(§6) MIC values of the compounds described in Examples 1, 2 and 4 were determined as their sodium salts and the compound described in Example 5 was determined as a free carboxylic acid.

Another data set relates to Proteus morganii EP-14. The data set is described as above. It counts as cell-based. Particulars: Morganella morganii, EP14, Mueller Hinton agar, 18 hours at 37° C., Examples 1, 2, 4 as sodium salts, Example 5 as free acid. The method, then:
as §1, §2, §3, §4, §5, §6

Data set [2] has as its system Klebsiella pneumoniae EK-6. The description is as above. It counts as cell-based. Particulars: EK6, Mueller Hinton agar, 18 hours at 37° C., Examples 1, 2, 4 as sodium salts, Example 5 as free acid. Here is the method:
as §1, §2, §3, §4, §5, §6

In a further data set the test system is Escherichia coli NIHJ. Described as above. It counts as cell-based. The note with it: Mueller Hinton agar, 18 hours at 37° C., Examples 1, 2, 4 as sodium salts, Example 5 as free acid. The method, then: as §1, §2, §3, §4, §5, §6
Data set [3] concerns Staphylococcus aureus 209P. The description is as above. Particulars: Mueller Hinton agar, 18 hours at 37° C., Examples 1, 2, 4 as sodium salts, Example 5 as free acid. It counts as cell-based. The method, then: as §1, §2, §3, §4, §5, §6
For data set [4], the system named is Pseudomonas aeruginosa EP-172. The data set is described as above. The note with it: EP172, Mueller Hinton agar, 18 hours at 37° C., Examples 1, 2, 4 as sodium salts, Example 5 as free acid. It counts as cell-based. The method, then:
as §1, §2, §3, §4, §5, §6

Data set [5] is described as follows: acute toxicity (mouse, oral administration). Particulars: in vivo.

In the case of `CC(=O)OCC1=C(C(=O)O)N2C(=O)[C@@H](NC(=O)[C@H](N)c3ccccc3)[C@H]2SC1` [Cephaloglycin, cephaloglycin, reference compound], the minimum inhibitory concentration (MIC) came out at 100 µg/mL in data set [1]; 25 µg/mL in the data set with Proteus morganii EP-14; 1.56 µg/mL in data set [2]; 3.13 µg/mL in the data set on Escherichia coli NIHJ; 0.8 µg/mL in data set [3]; 100 µg/mL in data set [4].
Compound `CC(=O)OCC1=C(C(=O)O)N2C(=O)[C@@H](NC(=O)[C@H](NC(=O)c3coc4cc(O)c(O)cc4c3=O)c3ccc(O)cc3)[C@H]2SC1` [Example 1, 7β-[D-2-(6,7-Dihydroxychromone-3-carboxamido)-2-(4-hydroxyphenyl)acetamido]-3-acetoxymethyl-3-cephem-4-carboxylic acid] displayed a 50% lethal dose (LD50) in data set [5] of more than 5000 mg/kg. The minimum inhibitory concentration (MIC) came out at 3.13 µg/mL in data set [1]; 50 µg/mL in the data set with Proteus morganii EP-14; 0.2 µg/mL in data set [2]; 3.13 µg/mL in the data set on Escherichia coli NIHJ; 3.13 µg/mL in data set [3]; 3.13 µg/mL in data set [4].
Regarding `CC(=O)OCC1=C(C(=O)O)N2C(=O)[C@@H](NC(=O)[C@H](NC(=O)c3coc4cc(OC(C)=O)c(OC(C)=O)cc4c3=O)c3ccc(O)cc3)[C@H]2SC1` [Example 2, 7β-[D-2-(6,7-Diacetoxychromone-3-carboxamido)-2-(4-hydroxyphenyl)acetamido]-3-acetoxymethyl-3-cephem-4-carboxylic acid], the LD50 in data set [5] is more than 5000 mg/kg. Moreover, the minimum inhibitory concentration (MIC) in data set [1] turned out to be 6.25 µg/mL; in the data set on Proteus morganii EP-14 it was 100 µg/mL; in data set [2], 0.2 µg/mL; with Escherichia coli NIHJ it was 12.5 µg/mL; in data set [3], 6.25 µg/mL; in data set [4], 3.13 µg/mL.
Turning to `CC(=O)OCC1=C(C(=O)O)N2C(=O)[C@@H](NC(=O)[C@H](NC(=O)c3coc4c(O)c(O)ccc4c3=O)c3ccc(O)cc3)[C@H]2SC1` [Example 4, 7β-[D-2-(7,8-Dihydroxychromone-3-carboxamido)-2-(4-hydroxyphenyl)acetamido]-3-acetoxymethyl-3-cephem-4-carboxylic acid], the MIC in data set [1] amounted to 100 µg/mL; in the data set on Proteus morganii EP-14, 100 µg/mL; in data set [2] it was 0.2 µg/mL; in the data set on Escherichia coli NIHJ, 12.5 µg/mL; in data set [3], 0.8 µg/mL; in data set [4] it was 1.56 µg/mL.
With `CC(=O)OCC1=C(C(=O)O)N2C(=O)[C@@H](NC(=O)[C@H](NC(=O)c3coc4c(OC(C)=O)c(OC(C)=O)ccc4c3=O)c3ccc(O)cc3)[C@H]2SC1` [Example 5, 7β-[D-2-(7,8-Diacetoxychromone-3-carboxamido)-2-(4-hydroxyphenyl)acetamido]-3-acetoxymethyl-3-cephem-4-carboxylic acid], the MIC in data set [1] came out at 25 µg/mL; in the data set on Proteus morganii EP-14, 25 µg/mL; in data set [2], 0.4 µg/mL; in the data set with Escherichia coli NIHJ it was 3.13 µg/mL; in data set [3], 6.25 µg/mL; in data set [4], 3.13 µg/mL.

One may read the MIC as the lowest concentration found to suppress growth. In general, LD50 refers to the dose at which mortality reaches 50%. A high value points to a less toxic substance.
